Measured values taken from patent US11890274B2 (JMM LICENSING LLC, priority 2015, dated 2024).
“Also recorded” adds a separate entry of the source.

Experiments:
[1] = test system: plaques, tangles, and cognitive defects; settings: mice; given before the establishment of plaques and tangles in the brain; cited from earlier work
[2] = test system: Human kidney clear cell carcinoma cell line Caki-I (HTB-46); test: 3H-thymidine uptake assay, renal cell carcinoma; format: cell-based; settings: for Average Cpm / Cpm 1 / Cpm 2 / Cpm 3: Caki-I, 24 hours post treatment; for Average cpm: pilot plating
Protocol: Pilot plating experiments using Human kidney clear cell carcinoma cell line Caki-I (HTB-46). […] 0.1% DMSO, the test article solvent, in media was the control.
The cells were passaged onto 24-well plates at a concentration of 30,000 cells/well, in total medium volume of 1 mL (RPMI 1640+10% FBS+antibiotics). The cells were then allowed to attach and were incubated from 24 hours before treatment. Cells were then treated, in triplicate, with various concentrations of treatment articles.
^3H-thymidine (1 mCi/mL) was diluted to 1 μCi in 5 μL of medium (RPMI 1640+10%/FBS+antibiotics) and then added to each well at either 18- or 42-hr post treatment, for the 24- and 48-hr time points respectively.
Cells were then washed three times with 1 ML of DPBS at 24- or 48-hr post treatment to remove unincorporated ^3H-thymidine. Each well of cells was then lysed in 0.5 mL of 0.5N NaOH+0.5% SDS. Lysate was then transferred to scintillation tubes containing 1 mL if scintillation fluid for counting (3 min/sample).

[3] = test system: Human breast adenocarcinoma cell line (MCF-7 (HTB-22)); test: 3H-thymidine uptake assay, breast cancer cell line; format: cell-based; settings: for Average Cpm / Cpm 1 / Cpm 2 / Cpm 3 / dose proportionality of the effect alone, percent inhibition of 3H-uptake (FIG. 4): MCF-7; for Average Cpm / Cpm 1 / Cpm 2 / Cpm 3: 24 hours post treatment; for dose proportionality of the effect alone, percent inhibition of 3H-uptake (FIG. 4): drug alone at lower doses
Protocol: The cells were passaged onto 24-well plates at a concentration of 50,000 cells/well, in total medium volume of 1 mL (DMEM+10% FBS+0.01 mg/mL insulin+antibiotics). The cells were then allowed to attach and were incubated from 24 hours before treatment. Cells were then treated, in triplicate, with various concentrations of treatment articles. ^3H-thymidine (1 mCi/mL) was diluted to 1 μCi in 5 μL of medium (DMEM+10% FBS+0.01 mg/mL insulin+antibiotics) and then added to each well at 18-hr post treatment. […] Each well of cells was then lysed in 0.5 mL of 0.5N NaOH+0.5% SDS. Lysate was then transferred to scintillation tubes containing 1 mL if scintillation fluid for counting (3 min/sample).

[4] = cited from earlier work

CO[C@H]1C[C@@H]2CC[C@@H](C)[C@@](O)(O2)C(=O)C(=O)N2CCCC[C@H]2C(=O)O[C@H]([C@H](C)C[C@@H]2CC[C@@H](O)[C@H](OC)C2)CC(=O)[C@H](C)/C=C(\C)[C@@H](O)[C@@H](OC)C(=O)[C@H](C)C[C@H](C)/C=C/C=C/C=C/1C [Rapamycin]
effect on plaques, tangles, and cognitive defects [1]: significantly reduce plaques, tangles, and cognitive defects
Average Cpm ([2]; dosage 1 nM): 10651 cpm
Cpm 1 ([2]; dosage 1 nM): 10730 cpm
Cpm 2 ([2]; dosage 1 nM): 9692 cpm
Cpm 3 ([2]; dosage 1 nM): 11531 cpm
Average Cpm ([2]; dosage 5 nM): 8758 cpm
Cpm 1 ([2]; dosage 5 nM): 8771 cpm
Cpm 2 ([2]; dosage 5 nM): 7473 cpm
Cpm 3 ([2]; dosage 5 nM): 10030 cpm
Average Cpm ([2]; dosage 10 nM): 9111 cpm
Cpm 1 ([2]; dosage 10 nM): 9861 cpm
Cpm 2 ([2]; dosage 10 nM): 8987 cpm
Cpm 3 ([2]; dosage 10 nM): 8486 cpm
Average cpm ([2]; 5 nm, 24-hr post treatment): 14805 cpm
Average cpm ([2]; 5 nm, 48-hr post treatment): 8584 cpm
Average cpm ([2]; 10 nm, 24-hr post treatment): 12611 cpm
Average cpm ([2]; 10 nm, 48-hr post treatment): 7463 cpm
Average cpm ([2]; 20 nm, 24-hr post treatment): 12044 cpm
Average cpm ([2]; 20 nm, 48-hr post treatment): 6349 cpm
inhibition at 0.0005 µM ([3]; Homo sapiens, MCF7, read-out: inhibitory effect (percent inhibition of 3H-uptake), rapamycin alone at 0.5 nM): 25%
inhibition at 0.001 µM ([3]; Homo sapiens, MCF7, read-out: inhibitory effect (percent inhibition of 3H-uptake), rapamycin alone at 1.0 nM): 32%
Average Cpm ([3]; dosage 0.1 nM): 1181 cpm
Cpm 1 ([3]; dosage 0.1 nM): 1041 cpm
Cpm 2 ([3]; dosage 0.1 nM): 1516 cpm
Cpm 3 ([3]; dosage 0.1 nM): 986 cpm
Average Cpm ([3]; dosage 0.5 nM): 2543 cpm
Cpm 1 ([3]; dosage 0.5 nM): 2537 cpm
Cpm 2 ([3]; dosage 0.5 nM): 2524 cpm
Cpm 3 ([3]; dosage 0.5 nM): 2567 cpm
Average Cpm ([3]; dosage 1 nM): 2294 cpm
Cpm 1 ([3]; dosage 1 nM): 3114 cpm
Cpm 2 ([3]; dosage 1 nM): 1220 cpm
Cpm 3 ([3]; dosage 1 nM): 2548 cpm
dose proportionality of the effect alone, percent inhibition of 3H-uptake (FIG. 4) [3]: not dose proportional; also recorded: not dose-proportional
standard therapeutic serum trough levels ([4]; considered clinically relevant for current uses): 5 to 20 ng/mL

CN(Cc1cnc2nc(N)nc(N)c2n1)c1ccc(C(=O)N[C@@H](CCC(=O)O)C(=O)O)cc1 [Methotrexate, N-[4-[[(2,4-diamino-6-pteridinyl)methyl]methylamino]benzoyl]L-glutamic acid]
Average Cpm ([2]; dosage 100 nM): 11414 cpm
Cpm 1 ([2]; dosage 100 nM): 10636 cpm
Cpm 2 ([2]; dosage 100 nM): 12192 cpm
Cpm 3 ([2]; dosage 100 nM): 4932 cpm
Average cpm ([2]; 2.5 nm, 24-hr post treatment): 30659 cpm
Average cpm ([2]; 2.5 nm, 48-hr post treatment): 4811 cpm
Average cpm ([2]; 5 nm, 24-hr post treatment): 31148 cpm
Average cpm ([2]; 5 nm, 48-hr post treatment): 16772 cpm
Average cpm ([2]; 10 nm, 24-hr post treatment): 27266 cpm
Average cpm ([2]; 10 nm, 48-hr post treatment): 20251 cpm
Average cpm ([2]; 20 nm, 24-hr post treatment): 26144 cpm
Average cpm ([2]; 20 nm, 48-hr post treatment): 11273 cpm

[H]/N=C(/N=C(N)N)N(C)C [Metformin, 1,1-Dimethylbiguanide]
Average Cpm ([3]; dosage 0.05 nM): 1144 cpm
Cpm 1 ([3]; dosage 0.05 nM): 1267 cpm
Cpm 2 ([3]; dosage 0.05 nM): 1123 cpm
Cpm 3 ([3]; dosage 0.05 nM): 1041 cpm
Average Cpm ([3]; dosage 0.1 nM): 2092 cpm
Cpm 1 ([3]; dosage 0.1 nM): 2238 cpm
Cpm 2 ([3]; dosage 0.1 nM): 2595 cpm
Cpm 3 ([3]; dosage 0.1 nM): 1444 cpm
Average Cpm ([3]; dosage 0.5 nM): 1084 cpm
Cpm 1 ([3]; dosage 0.5 nM): 1283 cpm
Cpm 2 ([3]; dosage 0.5 nM): 1048 cpm
Cpm 3 ([3]; dosage 0.5 nM): 921 cpm
dose proportionality of the effect alone, percent inhibition of 3H-uptake (FIG. 4) [3]: not dose proportional; also recorded: not dose-proportional
standard dose therapeutic serum Cmax ([4]; standard dose): 1-2 microgram/mL
